Reference: the supplement of paper PMC10307832

Columns and labels:
Assay in all cases: relative viability (nuclei count vs DMSO), 5 days (fraction); higher = more cells survive
[1] = compound: Cc1nc(Nc2ncc(C(=O)Nc3c(C)cccc3Cl)s2)cc(N2CCN(CCO)CC2)n1 [Dasatinib] + C[C@]1(O)C[C@@H](c2nc(-c3ccc4ccc(-c5ccccc5)nc4c3)c3c(N)nccn32)C1 [Linsitinib] (partner 1 µM)
Outline: (§1)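 Each reported value is a median over duplicate plates. It expresses relative viability: treated-well nuclei count divided by vehicle-well nuclei count. Lung cancer cell lines in 1536-well plates were dosed by pin tool a day after seeding, alone with one drug or with a fixed anchor-drug dose plus five library-drug doses (not always all listed) in √10 steps, and nuclei were counted after 5 days.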

[2] = compound: C1CC1C(=O)NC2=NNC3=C2C=CC(=C3)C4=CC(=CC=C4)C(=O)NC5CC5 [XMD13-2] + O=C(CCCCCCC(=O)Nc1ccccc1)NO [Vorinostat] (partner 1 µM)
Outline: as §1

[3] = compound: Cc1nc(Nc2ncc(C(=O)Nc3c(C)cccc3Cl)s2)cc(N2CCN(CCO)CC2)n1 [Dasatinib] + CC(=O)Nc1cccc(-n2c(=O)n(C3CC3)c(=O)c3c(Nc4ccc(I)cc4F)n(C)c(=O)c(C)c32)c1 [Trametinib] (partner 0.02 µM)
Outline: as §1

[4] = compound: Cc1nc(Nc2ncc(C(=O)Nc3c(C)cccc3Cl)s2)cc(N2CCN(CCO)CC2)n1 [Dasatinib] + Cc1cc(Nc2cc(N3CCN(C)CC3)nc(Sc3ccc(NC(=O)C4CC4)cc3)n2)n[nH]1 [Tozasertib] (partner 0.1 µM)
Outline: as §1

Cell Line	relative viability ([1]; first compound 0.005 µM)	relative viability ([1]; first compound 0.01581 µM)	relative viability ([1]; first compound 0.05 µM)	relative viability ([1]; first compound 0.1581 µM)	relative viability ([1]; first compound 0.5 µM)	relative viability ([2]; first compound 0.05 µM)	relative viability ([2]; first compound 0.1581 µM)	relative viability ([2]; first compound 0.5 µM)	relative viability ([2]; first compound 1.581 µM)	relative viability ([2]; first compound 5 µM)	relative viability ([3]; first compound 0.005 µM)	relative viability ([3]; first compound 0.01581 µM)	relative viability ([3]; first compound 0.05 µM)	relative viability ([3]; first compound 0.1581 µM)	relative viability ([3]; first compound 0.5 µM)	relative viability ([4]; first compound 0.005 µM)	relative viability ([4]; first compound 0.01581 µM)	relative viability ([4]; first compound 0.05 µM)	relative viability ([4]; first compound 0.1581 µM)	relative viability ([4]; first compound 0.5 µM)
LXF-289	1	0.974	0.831	0.202	0.131	0.864	0.767	0.86	0.959	0.808	0.678	0.746	0.821	0.555	0.219	0.193	0.0886	0.0932	0.0636	0.0438
NCI-H23	0.483	0.38	0.505	0.315	0.213	0.681	0.46	0.625	0.646	0.675	0.376	0.278	0.231	0.188	0.168	0.318	0.309	0.347	0.302	0.318
NCI-H322M	1.04	0.703	0.708	0.319	0.196	0.927	0.984	0.914		1.05	0.543	0.44	0.429	0.333	0.269	0.465	0.356	0.289	0.232	0.176
NCI-H358	0.607	0.484	0.387	0.232	0.277	0.751	0.687	0.692	0.489	0.442	0.151	0.116	0.105	0.0936	0.089	0.0888	0.0863	0.101	0.084	0.0689
NCI-H441	0.566	0.523	0.491	0.311	0.176	0.854	1.01	0.97	0.87	0.839	0.409	0.418	0.328	0.208	0.181	0.594	0.539	0.625	0.467	0.375
NCI-H460	0.315	0.229	0.157	0.0338	0.0131	1	0.723	0.828	0.696	0.766	0.0853	0.0968	0.0795	0.0504	0.0455	0.299	0.425	0.302	0.338	0.177
NCI-H520	0.719	0.598	0.453	0.249	0.19	0.799	0.743	0.698	0.869	0.414	0.614	0.322	0.298	0.144	0.205	0.356	0.284	0.294	0.239	0.179
NCI-H596	0.854	0.828	0.784	0.449	0.328	0.726	0.612	0.582	0.61	1.02	0.7	0.578	0.56	0.431	0.323	0.766	0.671	0.87	0.507	0.393
NCI-H647	1.02	0.46	0.627	0.319	0.192	0.706	0.59	0.822	0.746	0.425	0.372	0.224	0.244	0.145	0.116	0.265	0.288	0.128	0.0973	0.0474
NCI-H650	0.847	0.941	0.892	0.416	0.396	0.526	0.416	0.46	0.348	0.497	0.888	0.899	0.847	0.503	0.458	0.705	0.665	0.755	0.619	0.42
NCI-H661	0.43	0.329	0.31	0.236	0.215	0.811	0.75	0.75	0.825	0.563	0.629	0.49	0.532	0.445	0.338	0.348	0.34	0.324	0.323	0.295
NCI-H727	0.233	0.249	0.262	0.13	0.152	1.23	1.09	1.41	1.33	1.22	0.355	0.281	0.322	0.296	0.25	0.607	0.523	0.606	0.379	0.185
NCI-H838	0.832	0.628	0.573	0.243	0.221	0.839	0.661	0.756	0.713	0.763	0.486	0.435	0.365	0.227	0.142	0.279	0.292	0.245	0.179	0.2
NCI-H1355	0.686	0.597	0.667	0.428	0.369	0.704	0.601	0.694	0.624	0.638	0.48	0.346	0.5	0.293	0.265	0.585	0.421	0.459	0.401	0.347
NCI-H1395	1.24	1.05	0.887	0.451	0.343	0.732	0.871	0.651	0.594	0.707	1.12	0.968	1.03	0.605	0.327	0.819	0.713	0.723	0.555	0.4
NCI-H1437	1.02	1.03	1.09	0.859	0.377	0.879	0.815	0.756	0.793	0.786	0.55	0.465	0.433	0.305	0.25	0.431	0.38	0.394	0.32	0.314
NCI-H1651	0.894	0.746	0.551	0.474	0.498	0.586	0.561	0.565	0.593	0.613	0.848	0.852	0.834	0.77	0.679	0.679	0.611	0.724	0.522	0.656
NCI-H1666	0.806	0.595	0.788	0.464	0.288	0.999	1.02	1.09	1.03	1	0.879	0.858	0.986	0.776	0.833	0.632	0.616	0.67	0.565	0.309
NCI-H1734	0.678	0.693	0.64	0.394	0.331	1.02	0.777	0.753	0.685	0.547	0.665	0.59	0.612	0.599	0.512	0.26	0.285	0.235	0.165	0.181
NCI-H1755	0.795	0.743	0.642	0.391	0.171	0.827	0.685	0.875	0.926	0.795	0.752	0.68	0.658	0.444	0.301	0.584	0.532	0.516	0.312	0.21
NCI-H1793	0.524	0.644	0.553	0.506	0.472	1.03	0.602	0.746	0.666	0.928	0.4	0.353	0.317	0.357	0.322	0.231	0.19	0.181	0.146	0.147
NCI-H1915	1.11	1.03	0.921	0.488	0.288	0.582	0.486	0.5	0.486	0.474	0.291	0.245	0.228	0.151	0.0841	0.435	0.372	0.301	0.173	0.157
NCI-H1944	1.15	1.34	0.787	0.419	0.276	0.632	0.53	0.607	0.808	0.628	0.389	0.367	0.348	0.218	0.153	0.259	0.223	0.201	0.111	0.104
NCI-H1975	0.86	0.713	0.851	0.286	0.243	0.795	0.636	0.662	0.931	0.801	0.364	0.25	0.272	0.232	0.177	0.692	0.677	0.648	0.377	0.245
NCI-H1993	0.61	0.756	0.675	0.629	0.597	1.2	0.814	0.769	0.613	0.907	0.418	0.396	0.532	0.353	0.525	0.524	0.435	0.563	0.448	0.377
NCI-H2009	1.21	1.02	1.23	0.821	0.193	0.838	0.732	0.835	0.783	0.804	0.26	0.173	0.184	0.12	0.0876	0.738	0.65	0.679	0.4	0.179
